Laboratory results from US20170283440A1, “CARM1 INHIBITORS AND USES THEREOF” (Epizyme, Inc., priority 2014, published 2017).
Where two headings read alike, the source gives them in different places.

Experiments:
[1] = target: T1, Human CARM1 (PRMT4) (Homo sapiens, UniProt Q86X55); assay: CARM1 enzyme assay on peptide substrate (3H-SAM Flashplate); assay type: biochemical; details: CARM1 0.25 nM, 3H-SAM 30 nM, peptide 250 nM; read-out: Biochem IC50
T1 construct: Flag-CARM1-His was eluted with 200 ug/ml FLAG peptide in buffer A; made in house; host or cells: HEK 293F cells infected with recombinant baculovirus (pFastBacMam)
T1 sequence (Q86X55 other isoform, or with tags, fused parts or gaps): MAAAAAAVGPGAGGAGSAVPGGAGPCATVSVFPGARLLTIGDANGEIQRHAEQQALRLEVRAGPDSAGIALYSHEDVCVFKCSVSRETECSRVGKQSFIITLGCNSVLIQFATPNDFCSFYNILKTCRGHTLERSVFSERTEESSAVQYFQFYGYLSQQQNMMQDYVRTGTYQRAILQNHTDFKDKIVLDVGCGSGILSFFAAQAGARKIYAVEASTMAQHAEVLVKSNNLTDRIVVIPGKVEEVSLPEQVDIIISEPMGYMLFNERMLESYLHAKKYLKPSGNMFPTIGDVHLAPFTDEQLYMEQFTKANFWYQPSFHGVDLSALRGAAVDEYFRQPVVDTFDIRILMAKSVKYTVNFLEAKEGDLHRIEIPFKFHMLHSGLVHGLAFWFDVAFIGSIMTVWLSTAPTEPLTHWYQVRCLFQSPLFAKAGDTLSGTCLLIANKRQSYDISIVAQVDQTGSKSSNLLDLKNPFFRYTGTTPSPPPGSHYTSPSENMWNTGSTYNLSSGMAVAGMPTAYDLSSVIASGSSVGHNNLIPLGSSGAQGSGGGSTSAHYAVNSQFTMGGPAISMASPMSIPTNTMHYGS
Summary of the method: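 Flag-CARM1-His (isoform 1, Δ539-561; HEK293F-expressed), 0.25 nM, preincubated 30 min RT with compound, then 30 nM 3H-SAM and 250 nM biotinylated H3(16-30) R26me1 peptide in pH 7.6 Bicine buffer, 2% DMSO. Stopped with 300 uM cold SAM; streptavidin Flashplate capture, cpm. % inhibition vs DMSO/1 mM SAH, 3- or 4-parameter fit.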

[2] = test system: asymmetric di-methyl PABP1 in RKO cells; assay: RKO methylation assay (In Cell Western for asymmetric di-methyl PABP1); assay type: cell-based; details: 48 hours incubation, read-out: Cellular IC50
Summary of the method: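 RKO cells treated 48 h at 37 °C, then fixed, methanol-permeabilized and probed for asymmetric di-methyl PABP1 (16 h, 4 °C) with DRAQ5 counterstain; 800/700 nm intensity ratio read.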

| SMILES | IC50 [1] | IC50 ([2]; Homo sapiens) | IC50 [2] |
| --- | --- | --- | --- |
| CNCC(O)COc1cccc(-c2nc(NCc3cc(C)on3)c3cnn(C4CC4)c3n2)c1 (stereo not drawn) [Example 19-9] | 0.1 to 1 µM | > 20 µM |  |
| CNCC(O)COc1cc(OC)cc(-c2cc(NC3CCOCC3)c3c(C)nn(C(C)C)c3n2)c1 (stereo not drawn) [Example 20-4] | < 0.1 µM | 10 to 20 µM |  |
| CNCC(O)COc1cccc(-c2nc(N3CCOCC3)c3cnn(C(C)(C)C)c3n2)c1 (stereo not drawn) [Example 20-5] | < 0.1 µM | > 20 µM |  |
| CCc1cc(OCC(O)CNC)cc(-c2cc(N3CCOCC3)n3ncc(C(C)C)c3n2)c1 (stereo not drawn) [Example 20-6] | 0.1 to 1 µM | > 20 µM |  |
| CNCC(O)COc1cccc(-c2cc(N3CCOC3=O)n3ncc(C(C)C)c3n2)c1 (stereo not drawn) [Example 20-9] | 0.1 to 1 µM | > 20 µM |  |
| CNCC(O)COc1cc(OC(C)C)cc(-c2cc(N3CCOCC3)c3cnn(C(C)C)c3n2)c1 (stereo not drawn) [Example 21-4] | < 0.1 µM | > 20 µM |  |
| CNCC(O)COc1cccc(-c2nc(NCc3ccncc3)c3cnn(C4CC4)c3n2)c1 (stereo not drawn) [Example 21-5] | 0.1 to 1 µM | > 20 µM |  |
| CNCC(O)COc1cc(NC)cc(-c2cc(N3CCOCC3)n3ncc(C(C)C)c3n2)c1 (stereo not drawn) [Example 21-6] | < 0.1 µM | > 20 µM |  |
| CC(C)n1ncc2c(N3CCOCC3)cc(-c3cccc(SCC(O)CN)c3)nc21 (stereo not drawn) [Example 21-9] | 0.1 to 1 µM | > 20 µM |  |
| CNCC(O)COc1cc(Cl)cc(-c2cc(NC3CCOCC3)c3c(C)nn(C(C)C)c3n2)c1 (stereo not drawn) [Example 22-4] | < 0.1 µM | 5 to 10 µM |  |
| CNCC(O)COc1cccc(-c2nc(NCc3ccccn3)c3cnn(C4CC4)c3n2)c1 (stereo not drawn) [Example 22-5] | 0.1 to 1 µM | > 20 µM |  |
| CNCC(O)COc1cc(OC)cc(-c2cc(N3CCOCC3)n3ncc(C(C)C)c3n2)c1 (stereo not drawn) [Example 22-6] | < 0.1 µM | > 20 µM |  |
| CNCC(O)COc1cc(OC)cc(-c2cc(N[C@H]3CCOC3)n3ncc(C(C)C)c3n2)c1 (stereo partly drawn) [Example 23-6] | < 0.1 µM | > 20 µM |  |
| CNCC(O)COc1cc(CO)cc(-c2cc(NC3CCOCC3)c3cnn(C(C)C)c3n2)c1 (stereo not drawn) [Example 23-9] | 0.1 to 1 µM | > 20 µM |  |
| CC(C)n1ncc2c(N3CCOCC3)cc(-c3cc(OCC(O)CN)cc(OC(F)(F)F)c3)nc21 (stereo not drawn) [Example 24-4] | 0.1 to 1 µM | > 20 µM |  |
| Cc1cc(CNc2nc(-c3cccc(OCC(O)CN)c3)nc3c2cnn3C2CC2)n(C)n1 (stereo not drawn) [Example 24-5] | < 0.1 µM | > 20 µM |  |
| CNCC(O)COc1cc(OC)cc(-c2cc(N[C@@H]3CCOC3)n3ncc(C(C)C)c3n2)c1 (stereo partly drawn) [Example 24-6] | < 0.1 µM | > 20 µM |  |
| CC(C)n1ncc2c(NS(=O)(=O)N(C)C)cc(-c3cccc(OCC(O)CN)c3)nc21 (stereo not drawn) [Example 24-9] | 0.1 to 1 µM | > 20 µM |  |
| CNCC(O)COc1cc(OC)cc(-c2cc(N(C)C3CCOCC3)c3c(C)nn(C(C)C)c3n2)c1 (stereo not drawn) [Example 25-4] | < 0.1 µM | 10 to 20 µM |  |
| CNCC(O)COc1cccc(-c2nc(NCc3ccn(C)n3)c3cnn(C4CC4)c3n2)c1 (stereo not drawn) [Example 25-5] | 0.1 to 1 µM | > 20 µM |  |

| SMILES | IC50 [1] | IC50 ([2]; Homo sapiens) | IC50 [2] |
| --- | --- | --- | --- |
| CNCC(O)COc1cc(OC)cc(-c2cc(N(C)CCOC)n3ncc(C(C)C)c3n2)c1 (stereo not drawn) [Example 25-6] | < 0.1 µM | > 20 µM |  |
| CC(C)n1ncc2c(N3CCOCC3)cc(-c3cc(OC[C@H](O)CN)cc(OC[C@H](O)CN)c3)nc21 [Example 25-9] | 0.1 to 1 µM | > 20 µM |  |
| CNCC(O)COc1cc(Cl)cc(-c2cc(N3CCOC3=O)n3ncc(C(C)C)c3n2)c1 (stereo not drawn) [Example 26-6] | 0.1 to 1 µM | > 20 µM |  |
| CNCC(O)COc1cc(C#N)cc(-c2cc(N3CCOCC3)n3ncc(C(C)C)c3n2)c1 (stereo not drawn) [Example 26-9] | 0.1 to 1 µM | > 20 µM |  |
| CNCC(O)COc1cc(Cl)cc(-c2cc(N3CCOCC3)n3ncc(C(C)C)c3n2)c1 (stereo not drawn) [Example 27-6] | < 0.1 µM | > 20 µM |  |
| CNCC(O)COc1cccc(-c2cc(NS(=O)(=O)N(C)C)c3cnn(C(C)C)c3n2)c1 (stereo not drawn) [Example 27-9] | 0.1 to 1 µM | > 20 µM |  |
| CNCC(O)COc1cc(OC(F)(F)F)cc(-c2cc(NC3CCOCC3)c3cnn(C(C)C)c3n2)c1 (stereo not drawn) [Example 28-4] | 0.1 to 1 µM | > 20 µM |  |
| CNCC(O)COc1cc(Cl)cc(-c2cc(NC3CCOC3)n3ncc(C(C)C)c3n2)c1 (stereo not drawn) [Example 28-6] | < 0.1 µM | > 20 µM |  |
| CC(C)n1ncc2c(N3CCOCC3)cc(-c3cccc(NCC(O)CN)c3)nc21 (stereo not drawn) [Example 28-9] | 0.1 to 1 µM | > 20 µM |  |
| CNCC(O)COc1cc(Cl)cc(-c2cc(N[C@@H]3CCOC3)n3ncc(C(C)C)c3n2)c1 (stereo partly drawn) [Example 29-6] | < 0.1 µM | > 20 µM |  |
| Cc1cc(C)c(CNC(=O)c2cc(-c3cccc(OCC(O)CN)c3)nc3nn(C(C)C)cc23)c(=O)[nH]1 (stereo not drawn) [Example 29-9] | 0.1 to 1 µM | > 20 µM |  |
| CNCC(O)COc1cccc(-c2nc(NC3CCOCC3)c3cnn(C(C)(C)C)c3n2)c1 (stereo not drawn) [Example 30-5] | < 0.1 µM | 5 to 10 µM |  |
| CNCC(O)COc1cc(Cl)cc(-c2cc(N(C)CCOC)n3ncc(C(C)C)c3n2)c1 (stereo not drawn) [Example 30-6] | < 0.1 µM | > 20 µM |  |
| CNCC(O)COc1cccc(-c2nc(NCc3cccc[n+]3[O-])c3cnn(C4CC4)c3n2)c1 (stereo not drawn) [Example 31-5] | 0.1 to 1 µM | > 20 µM |  |
| CNCC(O)COc1cc(OC)cc(-c2cc(Nc3ncccn3)n3ncc(C(C)C)c3n2)c1 (stereo not drawn) [Example 31-6] | < 0.1 µM | > 20 µM |  |
| CC(C)n1ncc2c(N3CCOCC3)cc(-c3cccc(CCC(O)CN)c3)nc21 (stereo not drawn) [Example 31-9] | 0.1 to 1 µM |  | > 20 µM |
| CNCC(O)COc1cccc(-c2nc(NCc3ccc[n+]([O-])c3)c3cnn(C4CC4)c3n2)c1 (stereo not drawn) [Example 32-5] | 0.1 to 1 µM | > 20 µM |  |
| CNCC(O)COc1cccc(-c2cc(N3CC4(CCOCC4)C3)n3ncc(C(C)C)c3n2)c1 (stereo not drawn) [Example 32-6] | < 0.1 µM | > 20 µM |  |
| CNCC(O)COc1cccc(-c2nc(NCc3ccccn3)c3cnn(C(C)(C)C)c3n2)c1 (stereo not drawn) [Example 33-5] | < 0.1 µM | > 20 µM |  |
| C=Cc1cc(OCC(O)CNC)cc(-c2cc(NC3CCOCC3)n3ncc(C(C)C)c3n2)c1 (stereo not drawn) [Example 33-6] | 0.1 to 1 µM | > 20 µM |  |

| SMILES | IC50 [1] | IC50 ([2]; Homo sapiens) | IC50 [2] |
| --- | --- | --- | --- |
| CNCC(O)COc1cccc(-c2nc(NCc3cc(C)nn3C)c3cnn(C4CC4)c3n2)c1 (stereo not drawn) [Example 34-5] | < 0.1 µM | > 20 µM |  |
| CNCC(O)COc1cc(OC)cc(-c2cc(NC3CCOCC3)n3ncc(C(C)C)c3n2)c1 (stereo not drawn) [Example 34-6] | < 0.1 µM | > 20 µM |  |
| CNCC(O)COc1cc(OC)cc(-c2cc(N(C)[C@@H]3CCOC3)n3ncc(C(C)C)c3n2)c1 (stereo partly drawn) [Example 35-6] | < 0.1 µM | > 20 µM |  |
| CNCC(O)COc1cccc(-c2nc(N(C)C3CCOCC3)c3cnn(C(C)(C)C)c3n2)c1 (stereo not drawn) [Example 36-5] | < 0.1 µM | > 20 µM |  |
| CNCC(O)COc1cc(OC)cc(-c2cc(N(C)[C@H]3CCOC3)n3ncc(C(C)C)c3n2)c1 (stereo partly drawn) [Example 36-6] | < 0.1 µM | > 20 µM |  |
| NCC(O)COc1cccc(-c2nc(NCc3cccc4ccnn34)c3cnn(C4CC4)c3n2)c1 (stereo not drawn) [Example 37-5] | < 0.1 µM | > 20 µM |  |
| CNCC(O)COc1cc(OC)cc(-c2cc(N3CCC(O)CC3)n3ncc(C(C)C)c3n2)c1 (stereo not drawn) [Example 37-6] | 0.1 to 1 µM | > 20 µM |  |
| Cc1cc(C)c(CNc2nc(-c3cccc(OCC(O)CN)c3)nc3c2cnn3C2CC2)c(=O)[nH]1 (stereo not drawn) [Example 38-5] | 0.1 to 1 µM | > 20 µM |  |
| CNCC(O)COc1cc(Cl)cc(-c2cc(NC3C4COCC43)n3ncc(C(C)C)c3n2)c1 (stereo not drawn) [Example 38-6] | 0.1 to 1 µM | > 20 µM |  |
| NCC(O)COc1cccc(-c2nc(NCc3cn4ccsc4n3)c3cnn(C4CC4)c3n2)c1 (stereo not drawn) [Example 39-5] | < 0.1 µM | 10 to 20 µM |  |
| CNCC(O)COc1cc(Cl)cc(-c2cc(NC3CCOCC3)n3ncc(C(C)C)c3n2)c1 (stereo not drawn) [Example 39-6] | < 0.1 µM | > 20 µM |  |
| CNCC(O)COc1cc(Cl)cc(-c2cc(N(C)[C@@H]3CCOC3)n3ncc(C(C)C)c3n2)c1 (stereo partly drawn) [Example 40-6] | < 0.1 µM | > 20 µM |  |
| Cc1cccn2cc(CNc3nc(-c4cccc(OCC(O)CN)c4)nc4c3cnn4C3CC3)nc12 (stereo not drawn) [Example 41-5] | 0.1 to 1 µM | > 20 µM |  |
| CNCC(O)COc1cc(Cl)cc(-c2cc(N(C)[C@H]3CCOC3)n3ncc(C(C)C)c3n2)c1 (stereo partly drawn) [Example 41-6] | < 0.1 µM | > 20 µM |  |
| CNCC(O)COc1cccc(-c2nc(NCc3c(C)cc(C)[nH]c3=O)c3cnn(C4CC4)c3n2)c1 (stereo not drawn) [Example 42-5] | 0.1 to 1 µM | > 20 µM |  |
| CNCC(O)COc1cccc(-c2nc(NCc3cn4ccsc4n3)c3cnn(C4CC4)c3n2)c1 (stereo not drawn) [Example 43-5] | < 0.1 µM | > 20 µM |  |
| CNCC(O)COc1cc(OC)cc(-c2cc(N3CC4CCC(C3)O4)n3ncc(C(C)C)c3n2)c1 (stereo not drawn) [Example 43-6] | 0.1 to 1 µM | > 20 µM |  |
| CNCC(O)COc1cccc(-c2nc(NCc3cn4cccc(C)c4n3)c3cnn(C4CC4)c3n2)c1 (stereo not drawn) [Example 44-5] | 0.1 to 1 µM | 10 to 20 µM |  |
| CNCC(O)COc1cc(Cl)cc(-c2cc(N3C4CCC3COC4)n3ncc(C(C)C)c3n2)c1 (stereo not drawn) [Example 46-6] | < 0.1 µM | > 20 µM |  |
| CNCC(O)COc1cc(Cl)cc(-c2cc(NC3CCOCC3)n3ncc(C(C)(C)C)c3n2)c1 (stereo not drawn) [Example 48-6] | < 0.1 µM | > 20 µM |  |
